# In US7776863B2, “Methods of treating HIV infection” (priority 2004, dated 2010):
# Assays:
# HIV-1 LAI = experiment: microbe, parasite or virus in culture; conditions: for Combination Indices at % HIV Inhibition (Confidence Interval) 50% / Combination Indices at % HIV Inhibition (Confidence Interval) 75% / Combination Indices at % HIV Inhibition (Confidence Interval) 90% / Overall Result (combined anti-HIV effect): Compound 1 + named drug; for Combination Indices at % HIV Inhibition (Confidence Interval) 50% / Combination Indices at % HIV Inhibition (Confidence Interval) 75% / Combination Indices at % HIV Inhibition (Confidence Interval) 90%: 95% confidence interval in parentheses; for Overall Result (combined anti-HIV effect): all ratios, MT-2 cells, HIV-1 LAI; for EC50: Human immunodeficiency virus 1, MT2, 120 h
# Method: (§1) Virus and cell lines. The T-cell lines, MT-2 and PM-1 were obtained through the AIDS Research and Reference Reagent Program, NIAID, and were contributed by Dr. D. Richman and Dr. R. Gallo, respectively. Both cell lines were cultured in RPMI 1640 medium supplemented with 10% fetal bovine serum, 2 mM L-glutamine and sub-cultured twice a week. The LAI strain of HIV-1 was obtained from the Fred Hutchinson Cancer Research Center, and the Bal strain was from NIH. Both virus stocks were amplified and titered in MT-2 cells (LAI) and PM-1 cells (Bal) using a virus infectivity assay.
# (§2) Drug Susceptibility and Cytotoxicity Assays. For drug susceptibility assays, MT-2 cells were infected with HIV-1 LAI (or PM-1 cells with HIV-1 Bal) at an MOI of 0.005, and seeded into 96-well microtiter plates (0.1×10^6 cells/ml) containing serial dilutions of test compounds. […] Each drug ratio consisted of an array of 3-fold serial dilutions, and was performed in quadruplicate. The plates were incubated at 37° C./5% CO2. The MT-2 cells infected with HIV-1 LAI were incubated for 5 days. On day-five post-infection, 20 μl from each well was harvested and quantitated by a reverse transcriptase (RT) assay, or in samples involving non-nucleoside RT inhibitors, an MTS assay. The PM-1 cells infected with HIV-1 Bal and used for studying the combinations with CCR5 inhibitors were incubated for six days. On day-six post-infection, 20 μl from each well was harvested, 20- and 50-fold diluted and quantitated by p24 assay. Cytotoxicity assays were performed using uninfected cells, exposed to the same drug combinations, and incubated for six days. Cell viability was determined by an MTS assay. The CC50 values were calculated by using the exponential form of the median effect equation as mentioned below for calculation of EC50.
# (§3) Analysis of Drug Combination Effects. For determination of CI values, drugs were diluted in a fixed ratio and multiple ratios were analyzed. The drug serial dilutions spanned a range of concentrations near the EC50 value of each compound, so that equivalent antiviral activities could be compared. Concentration-response curves were estimated for each individual drug and every combination using the median-effect equation. The equation was fit using a nonlinear regression routine (Proc Nlin) in PC SAS version 8.01 (SAS Institute Inc., SAS Version 8.01, Cary, N.C.: SAS Institute Inc., 1990).
# (§4) In this equation, Fa stands for “fraction affected,” and represents the fraction of the viral load that has been inactivated. […] ED50 is drug concentration that is expected to reduce the amount of virus by 50%, and m is a parameter that reflects the slope of the concentration-response curve.
# (§5) To assess antiviral effects of different drug combination treatments, combination indices (CIs) were calculated according to Chou and Rideout. The combination index was computed as CI=[D]1/[Dm]1+[D]2/[Dm]2
# (§6) In this equation [Dm]1 and [Dm]2 are the concentrations of drugs that would individually produce a specific level of effect, while [D]1 and [D]2 are the concentrations of drugs in combination that would produce the same level of effect.
# (§7) Theoretically, additivity is implied if the CI is equal to one, synergy if the CI is less than one, and antagonism if the CI is greater than one. […] At best, we can construct a range that contains the likely values for the CI, given the noise in the data. In this report, these ranges are reported in parentheses next to each point estimate of the CI. […] If the range fell entirely above 1.0, we would infer antagonistic behavior. If the range were to include 1.0, we would infer additivity.
# (§8) In carrying out the combination experiments below, the EC50 for Compound 1 and each comparator compound was determined during the course of each study, and used in the subsequent data analysis.
# uninfected cells = experiment: Cytotoxicity assay of drug combinations, uninfected cells, MTS assay; type: cell-based; conditions: Compound 1 + other drug at the highest concentrations tested, 6 days
# Method: as §2, with “Assays.” for “Assays. For drug susceptibility assays, MT-2 cells were infected with HIV-1 LAI (or PM-1 cells with HIV-1 Bal) at an MOI of 0.005, and seeded into 96-well microtiter plates (0.1×10^6 cells/ml) containing serial dilutions of test compounds.”, “The MT-2 cells infected with HIV-1 LAI were incubated for 5 days.” left out
# HIV-1 Bal = experiment: Drug susceptibility assay, PM-1 cells infected with HIV-1 Bal, combinations with CCR5 inhibitors (p24 assay); type: cell-based; conditions: for Combination Indices at % HIV Inhibition (Confidence Interval) 50% / Combination Indices at % HIV Inhibition (Confidence Interval) 75% / Combination Indices at % HIV Inhibition (Confidence Interval) 90%: 95% confidence interval in parentheses
# Method: as §1, §2, §3, §4, §5, §6, §7, §8
# [1] = EC50 ratio 1:1 (Compound 1:comparator)
# [2] = EC50 ratio 1:2.5 (Compound 1:comparator)
# [3] = EC50 ratio 2.5:1 (Compound 1:comparator)
# [4] = Compound 1 + CCR5 inhibitor, EC50 ratio 1:1, PM-1 cells, HIV-1 Bal
# [5] = Compound 1 + CCR5 inhibitor, EC50 ratio 1:2.5, PM-1 cells, HIV-1 Bal
# [6] = Compound 1 + CCR5 inhibitor, EC50 ratio 2.5:1, PM-1 cells, HIV-1 Bal
SMILES,Combination Indices at % HIV Inhibition (Confidence Interval) 50% (HIV-1 LAI; [1]),Combination Indices at % HIV Inhibition (Confidence Interval) 75% (HIV-1 LAI; [1]),Combination Indices at % HIV Inhibition (Confidence Interval) 90% (HIV-1 LAI; [1]),Combination Indices at % HIV Inhibition (Confidence Interval) 50% (HIV-1 LAI; [2]),Combination Indices at % HIV Inhibition (Confidence Interval) 75% (HIV-1 LAI; [2]),Combination Indices at % HIV Inhibition (Confidence Interval) 90% (HIV-1 LAI; [2]),Combination Indices at % HIV Inhibition (Confidence Interval) 50% (HIV-1 LAI; [3]),Combination Indices at % HIV Inhibition (Confidence Interval) 75% (HIV-1 LAI; [3]),Combination Indices at % HIV Inhibition (Confidence Interval) 90% (HIV-1 LAI; [3]),Overall Result (combined anti-HIV effect) (HIV-1 LAI),EC50 (HIV-1 LAI),further results
"CON(Cc1ccc(F)cc1)C(=O)C=C(O)C(=O)O [Compound 2, 3-[(4-Fluorobenzyl)methoxycarbamoyl]-2-hydroxyacrylic acid]","0.48 (0.39, 0.58)","0.51 (0.37, 0.65)","0.54 (0.31, 0.76)","0.44 (0.36, 0.53)","0.51 (0.37, 0.65)","0.59 (0.34, 0.85)","0.50 (0.36, 0.63)","0.70 (0.44, 0.97)","1.00 (0.41, 1.59)",moderate synergistic,0.079 µM,Overall Result (combined anti-HIV effect) (HIV-1 LAI; listed as BMS-538203): Moderate-; Cytotoxicity of the drug combination (uninfected cells): No significant cytotoxicity
CCO/N=C(\c1ccc(Br)cc1)C1CCN(C2(C)CCN(C(=O)c3c(C)cc[n+]([O-])c3C)CC2)CC1 [SchC],,,,,,,,,,,,"Combination Indices at % HIV Inhibition (Confidence Interval) 50% (HIV-1 Bal; [4]): 0.19 (0.14, 0.25); Combination Indices at % HIV Inhibition (Confidence Interval) 75% (HIV-1 Bal; [4]): 0.46 (0.29, 0.63); Combination Indices at % HIV Inhibition (Confidence Interval) 90% (HIV-1 Bal; [4]): 1.12 (0.4, 1.83); Combination Indices at % HIV Inhibition (Confidence Interval) 50% (HIV-1 Bal; [5]): 0.50 (0.38, 0.61); Combination Indices at % HIV Inhibition (Confidence Interval) 75% (HIV-1 Bal; [5]): 0.92 (0.64, 1.21); Combination Indices at % HIV Inhibition (Confidence Interval) 90% (HIV-1 Bal; [5]): 1.74 (0.83, 2.65); Combination Indices at % HIV Inhibition (Confidence Interval) 50% (HIV-1 Bal; [6]): 0.08 (0.05, 0.11); Combination Indices at % HIV Inhibition (Confidence Interval) 75% (HIV-1 Bal; [6]): 0.21 (0.14, 0.28); Combination Indices at % HIV Inhibition (Confidence Interval) 90% (HIV-1 Bal; [6]): 0.54 (0.21, 0.88); Overall Result (combined anti-HIV effect) (HIV-1 Bal; Compound 1 + CCR5 inhibitor, all ratios, PM-1 cells, HIV-1 Bal): Additive-; EC50 (HIV-1 Bal; single drug, PM-1 cells infected with HIV-1 Bal, 6 days, p24 assay): 0.0009 µM"
"CC(C)Nc1cccnc1N1CCN(C(=O)c2cc3cc(NS(C)(=O)=O)ccc3[nH]2)CC1 [Delavirdine, delavirdine]","0.90 (0.75, 1.06)","0.49 (0.38, 0.61)","0.28 (0.18, 0.39)","0.57 (0.42, 0.71)","0.55 (0.36, 0.75)","0.57 (0.26, 0.89)","0.64 (0.49, 0.78)","0.46 (0.31, 0.60)","0.34 (0.17, 0.50)",Synergistic,0.025 µM,Overall Result (combined anti-HIV effect) (HIV-1 LAI; listed as delavirdine): synergistic
